Here are results for 3 molecules from US10800741B2 (ANCUREALL PHARMACEUTICAL (SHANGHAI) CO., LTD., priority 2017, dated 2020).

In general, IC50 refers to the concentration that inhibits the measured activity by half.

The subject of one assay is HCT116. The experiment in a line: In vitro growth inhibition of PI3KCA amplified/mutant tumor cells HCT116. The format is cell-based. The note with it: Homo sapiens; HCT-116; PI3KCAH1047R; KRAS G13D; read-out: IC50 growth inhibition. The protocol:
(§1) Suspension culture cells were collected by centrifugation (1700 rpm, 3 minutes). The supernatant was discarded and the cells were counted. According to each cell growth cycle, different concentrations of cells were prepared (5˜10×10^4 cells per ml), and inoculated to 96-well plates (Corning), with 100 μl per well, and incubated overnight at 37° C., 5% CO2. The next day, the test compound was added to the cultured cells (2 wells in parallel). The final concentration of the solvent was less than 1/1,000. The cells were further cultured for 3 to 5 days and assayed by MTT.
(§2) The adherent cells were taken out from the cell culture medium, and immediately added to a freshly prepared complete medium containing 10% CCK8 (5% FBS), 100 ul per hole. The suspended cells were directly added to a CCK8 reagent until reaching a final concentration of 10% and cultured for 1 to 4 hours.
(§3) T=optical density of drug-treated cell wells−optical density of blank control wells; T0=optical density of cell wells before drug treatment−optical density of blank control wells; C=optical density of solvent control wells−optical density of blank control wells. […] The experiments were repeated 1 to 3 times and a statistical analysis of data was conducted.

The test system of a further assay is PLC/PRF/5. The assay is described as follows: In vitro growth inhibition of PLC/PRF/5 cells. Format: cell-based. The note with it: Homo sapiens, FGFR3+++, FGFR4 +++. On the procedure:
as §1, with “Adherent cells were digested with 0.25% trypsin-EDTA (Gibco). Suspension” for “Suspension”
(§4) The MTT test reagent was a Dojindo CCK8 kit and the Microplate Reader was a THERMO […] FC instrument.
(§5) The adherent cells were taken out from the cell culture medium, and immediately added to a freshly prepared complete medium containing 10% CCK8 (5% FBS), 100 ul per hole. The suspended cells were directly added to a CCK8 reagent until reaching a final concentration of 10% and cultured for 1 to 4 hours. When a dark yellow color could be observed in the solvent control wells, the absorbance value at OD450 nm was measured and the cell growth rate was calculated according to the following formula: Cell Growth Rate (%)=100×(T−T0)/(C−T0)
as §3
(§6) Mutations in the FGFR1-4 gene often occur in different types of cancer patients. In order to test the growth inhibition activity of the present compound against tumor cells expressing different FGFR variants, tumor cell lines expressing representative FGFR1-4 were selected for further determining the activity of compounds 25, 66, 38 and 95 of the present invention. BGJ398, a selective inhibitor of FGFR1-4, was used as the control compound. The specific test method is the same as test example 1.

The next assay relates to SW48. The experiment in a line: In vitro growth inhibition of PI3KCA amplified/mutant tumor cells SW48. Particulars: Homo sapiens; SW48; PI3KCA G914R; EGFR G719S; read-out: IC50 growth inhibition. Format: cell-based. On the procedure: as §1, §2, §3
Another assay deals with KYSE70. The experiment in a line: In vitro growth inhibition of PI3KCA amplified/mutant tumor cells KYSE70. The note with it: Homo sapiens, KYSE-70; KYSE70; PI3KCA amp; KIT G779C; read-out: IC50 growth inhibition. Format: cell-based. On the procedure:
as §1, §2, §3

The test system of the next assay is JIMT-1. The assay is described as follows: In vitro growth inhibition of JIMT-1 cells. The format is cell-based. Particulars: Homo sapiens, FGFR1 amp, HER2 amp, PI3KCA C420R. On the procedure:
as §1, with “Adherent cells were digested with 0.25% trypsin-EDTA (Gibco). Suspension” for “Suspension”
as §4, §5, §3, §6

For a further assay, the system named is Huh-7. The assay is described as follows: In vitro growth inhibition of Huh-7 cells. The format is cell-based. Particulars: Homo sapiens, FGFR3+++, FGFR4 +++. The protocol:
as §1, with “Adherent cells were digested with 0.25% trypsin-EDTA (Gibco). Suspension” for “Suspension”
as §4, §5, §3, §6

The next assay deals with KATO III (FGFR2 amp). The experiment in a line: In vitro growth inhibition of KATO III tumor cells (MTT/CCK8). Format: cell-based, Human. The note with it: Homo sapiens, KATO III; in vitro growth inhibition (or induction of apoptosis), cells cultured 3 to 5 days, MTT (CCK8); read-out: IC50 KATO III (FGFR2 amp).
Another assay has as its system MFM-223. The assay is described as follows: In vitro growth inhibition of MFM-223 cells. Format: cell-based. The note with it: Homo sapiens, PI3KCA H1047R, FGFR1 amp, FGFR2 amp. The protocol: as §1, with “Adherent cells were digested with 0.25% trypsin-EDTA (Gibco). Suspension” for “Suspension”
as §4, §5, §3, §6

For the next assay, the system named is AGS. The assay is described as follows: In vitro growth inhibition of PI3KCA amplified/mutant tumor cells AGS. Particulars: Homo sapiens, PI3KCA E453K/E545A, KRAS G12D, read-out: IC50 growth inhibition. Format: cell-based. The protocol: as §1, §2, §3
Another assay has as its system H1703 (PDGFRa amp). The experiment in a line: In vitro growth inhibition of H1703 tumor cells (MTT/CCK8). The format is cell-based, Human. The note with it: Homo sapiens, NCI-H1703; in vitro growth inhibition (or induction of apoptosis), cells cultured 3 to 5 days, MTT (CCK8); read-out: IC50 H1703 (PDGFRa amp).
In another assay the test system is Kasumi-1 (KIT N822K). The experiment in a line: In vitro growth inhibition of Kasumi-1 tumor cells (MTT/CCK8). The format is cell-based, Human. The note with it: Homo sapiens, Kasumi 1; in vitro growth inhibition (or induction of apoptosis), cells cultured 3 to 5 days, MTT (CCK8); read-out: IC50 Kasumi-1 (KIT N822K).
For the next assay, the system named is DMS114. The assay is described as follows: In vitro growth inhibition of DMS114 cells. The format is cell-based. The note with it: Homo sapiens, DMS-114, FGFR1 amp. The protocol: as §1, with “Adherent cells were digested with 0.25% trypsin-EDTA (Gibco). Suspension” for “Suspension”
as §4, §5, §3, §6

The test system of a further assay is KCL-22 (BCR-ABL). The assay is described as follows: In vitro growth inhibition of KCL-22 tumor cells (MTT/CCK8). The format is cell-based, Human. The note with it: Homo sapiens, KCL-22; in vitro growth inhibition (or induction of apoptosis), cells cultured 3 to 5 days, MTT (CCK8); read-out: IC50 KCL-22 (BCR-ABL).

For `COc1cc2nccc(Oc3ccc(NC(=O)Nc4cc(C(C)(C)C)nn4C)c(Cl)c3Cl)c2cc1C(N)=O` [Compound 38, 4-{4-[3-(5-tert-butyl-2-methyl-2H-pyrazol-3-yl)-ureido]-2,3-dichloro-phenoxy}-7-methoxyquinolin-6-carboxamide], the IC50 with HCT116 is 11.9 nM; with PLC/PRF/5, 2.08 nM; with SW48, 13.6 nM; in the assay with KYSE70, 9.7 nM; in the assay on JIMT-1, 19.1 nM; in the assay with Huh-7, 3.99 nM. In addition, the IC50 in the assay with KATO III (FGFR2 amp) stood at 0.18 nM; in the assay on MFM-223, 14.9 nM; in the assay with AGS, 41.1 nM; in the assay on H1703 (PDGFRa amp) it was 1.81 nM; in the assay on Kasumi-1 (KIT N822K) it was 1.32 nM; in the assay with DMS114, 4.1 nM. In addition, the IC50 with KCL-22 (BCR-ABL) amounted to 0.481 nM.

Turning to `COCCOc1cc2nccc(Oc3ccc(NC(=O)Nc4cc(C(C)(C)C)n[nH]4)c(Cl)c3)c2cc1NC(C)=O` [Compound 66, N-[4-{4-[3-(5-tert-butyl-2H-pyrazol-3-yl)-ureido]-3-chloro-phenoxy}-7-(2-methoxy-ethoxy)-quinolin-6-yl]-acetamide], the IC50 was 26.7 nM with HCT116; 2.67 nM in the assay on PLC/PRF/5; 28.2 nM in the assay on SW48; 29.6 nM in the assay with KYSE70; 19.6 nM with JIMT-1; 1.98 nM with Huh-7. The IC50 in the assay on KATO III (FGFR2 amp) is 0.08 nM; with MFM-223 it was 17.9 nM; in the assay with AGS it was 43.5 nM; in the assay with H1703 (PDGFRa amp), 7.54 nM; with Kasumi-1 (KIT N822K) it was 1.13 nM; in the assay on DMS114, 3.92 nM. Further, the IC50 in the assay on KCL-22 (BCR-ABL) turned out to be 3.12 nM.

Take `CN1CCN(CCCOc2cc3nccc(Oc4ccc(NC(=O)Nc5cc(C(C)(C)C)n[nH]5)c(Cl)c4Cl)c3cc2C(N)=O)CC1` [Compound 95]: the IC50 turned out to be 33.2 nM in the assay on HCT116; 2.37 nM in the assay with PLC/PRF/5; 41.9 nM in the assay with SW48; 18.9 nM in the assay on KYSE70; 20.6 nM with JIMT-1; 7.89 nM in the assay on Huh-7. For the same molecule, the IC50 was determined as 0.91 nM with KATO III (FGFR2 amp); 32.6 nM in the assay on MFM-223; 39.9 nM with AGS; 3.81 nM in the assay on H1703 (PDGFRa amp); 1.34 nM in the assay with Kasumi-1 (KIT N822K); 2.94 nM in the assay on DMS114. For the same molecule, in the assay with KCL-22 (BCR-ABL), the IC50 was found to be 7.03 nM.
